Experiments:
[1] = Intrathecal screening of patients treated with opioids: adverse events / side-effects monitored at several time points; format: in vivo; parameters: key to vertigo / vomiting / pruritus / nausea / numbness / side-effects (grade printed beside morphine) / drowsiness / constipation / loss of appetite / urinary retention / sweating: (0) = none; (1) = mild; (2) = moderate; (3) = intense; (4) = severe
Experimental: (§1) A dose of opioids was administered with or without naltrexone and the adverse events or side-effects and anti-nociceptive effects were monitored at several time points.
(§2) In particular, patients with chronic (non-oncological) spinal pain and oncological patients in the non-terminal phase with evidence of side effects after minimum doses of opioids were monitored.

[2] = Intrathecal screening of patients treated with opioids: anti-nociceptive effects (Efficacy) monitored at several time points; format: in vivo
Experimental: Patients being treated with opioids underwent intrathecal screening, in which the evidence of side effects is extremely significant.
as §1, §2

[3] = Algoneurodystrophy, 2 h, without naltrexone
[4] = Back pain, 1 h, without naltrexone
[5] = Back pain, 2 h, without naltrexone
[6] = Back pain, 4 h, without naltrexone
[7] = Back pain, 24 h, without naltrexone
[8] = Cancer of the pancreas, without naltrexone
[9] = Diabetes mellitus type II, without naltrexone
[10] = Lumbago, 4 h, without naltrexone
[11] = Lumbago, 6 h, without naltrexone
[12] = Lumbago, 8 h, without naltrexone
[13] = Lumboischialgia in diabetic patients (VAS 6-7), without naltrexone
[14] = Lumboischialgia, without naltrexone
[15] = Lumbosacral spondylitis without myelopathy, 2 h-4 h, without naltrexone
[16] = Multiple sclerosis, without naltrexone
[17] = Nonspecific coccyx disorders, 6 h, without naltrexone
[18] = Persistent pain syndrome, without naltrexone
[19] = Right lumboischialgia, without naltrexone
[20] = Secondary bone and marrow malignancies (patient at r66), without naltrexone
[21] = Secondary bone and marrow malignancies (patient at r76), without naltrexone
[22] = Secondary malignancies of bone and marrow, without naltrexone
[23] = Stenosis of the lumbar spinal canal, without naltrexone
[24] = Persistent pain syndrome, with naltrexone
[25] = Right lumboischialgia, with naltrexone
[26] = Right lumboischialgia, with naltrexone, first mention in the cell
[27] = Right lumboischialgia, with naltrexone, second mention in the cell
[28] = Secondary bone and marrow malignancies (patient at r66), with naltrexone
[29] = Spinal pain, 4 h, with naltrexone
[30] = Spinal pain, 6 h, with naltrexone

In the case of `CN1CC[C@]23c4c5ccc(O)c4O[C@H]2[C@@H](O)C=C[C@H]3[C@H]1C5` [morphine], the pruritus ([1]; Algoneurodystrophy, 6-8 h, without naltrexone) is reported as 6-8 h: pruritus (3), urinary, the pruritus ([1]; Algoneurodystrophy, 1 h, without naltrexone) is reported as 1 h: pruritus (3) and the pruritus [1, 3] is reported as 2 h: pruritus (3). For the same compound, the vertigo ([1]; Back pain, 30 min, without naltrexone) was 30 min: vertigo (1), the nausea [1, 4] was 1 h: vertigo (1), nausea (1) and the vertigo [1, 4] was 1 h: vertigo (1), nausea (1). The vertigo [1, 5] was 2 h: vertigo (2), vomiting (2), the vomiting [1, 5] was 2 h: vertigo (2), vomiting (2) and the nausea [1, 6] was 3. The vertigo [1, 6] was 2, the vomiting [1, 6] was “vomiting (2)” and the pruritus ([1]; Back pain, 8 h, without naltrexone) was 8 h: pruritus (2). For the same compound, the nausea [1, 7] was 24 h: nausea (2), vertigo (2), the vertigo [1, 7] was 24 h: nausea (2), vertigo (2) and the constipation [1, 8] was “constipation”. For the same compound, the nausea [1, 8] was 3, the nausea [1, 9] was 3 and the pruritus [1, 9] was 4. For the same compound, the drowsiness ([1]; Lumbago, 1 h, without naltrexone) was 1 h: drowsiness (1), the nausea [1, 10] was 4 h: nausea (2), vomiting (2) and the vomiting [1, 10] was 4 h: nausea (2), vomiting (2). The nausea [1, 11] was 3, the pruritus [1, 11] was 6 h: pruritus (3), urinary reten- and the vomiting [1, 11] was 2. The nausea [1, 12] was 3, the pruritus [1, 12] was “pruritus (3), urinary retention (3)” and the vomiting [1, 12] was 2. The constipation [1, 13] was “constipation”, the drowsiness [1, 13] was “drowsiness” and the nausea [1, 13] was “nausea”. The oedema [1, 13] was “moderate”, the pruritus [1, 13] was “pruritus” and the nausea [1, 14] was “nausea (2),”. The pruritus [1, 14] was 2, the sweating [1, 14] was “sweating (2), vertigo (2),” and the vertigo [1, 14] was “sweating (2), vertigo (2),”. The vomiting [1, 14] was 3, the nausea [1, 15] was “nausea” and the vomiting [1, 15] was “vomiting”. For the same compound, the vomiting ([1]; Lumbosacral spondylitis without myelopathy, 6 h-8 h, without naltrexone) was 6 h-8 h: vomiting, the constipation [1, 16] was “constipation” and the loss of appetite [1, 16] was “loss of appetite”. For the same compound, the nausea [1, 16] was “nausea”, the vertigo [1, 16] was “vertigo” and the vomiting ([1]; Nonspecific coccyx disorders, 4 h, without naltrexone) was 4 h: recurrent vomiting. For the same compound, the nausea [1, 17] was 6 h: vomiting (3), nausea (3), the vomiting [1, 17] was 6 h: vomiting (3), nausea (3) and the asthenia ([1]; Nonspecific coccyx disorders, 8 h, without naltrexone) was 8 h: asthenia. For the same compound, the “side-effects (grade printed beside morphine)” value ([1]; Nonspecific coccyx disorders, time not given, without naltrexone) was “morphine (0)”, the nausea [1, 18] was “nausea” and the vertigo [1, 18] was “vertigo”. For the same compound, the vomiting [1, 18] was 4, the nausea [1, 19] was 2 and the pruritus [1, 19] was 4. For the same compound, the vomiting [1, 19] was “ing (2), urinary retention (2)”, the constipation [1, 20] was “constipation (3), drowsiness (3),” and the drowsiness [1, 20] was “constipation (3), drowsiness (3),”. The constipation [1, 21] was “tion (1)”, the loss of appetite [1, 21] was “nausea (4), loss of appetite (4),” and the nausea [1, 21] was “nausea (4), loss of appetite (4),”. The vertigo [1, 21] was 4, the vomiting [1, 21] was “vomiting” and the constipation [1, 22] was “constipation”. The pruritus [1, 22] was “pruritus (3)”, the headache [1, 23] was “headache” and the nausea [1, 23] was 4. For the same compound, the pruritus [1, 23] was 1, the sweating [1, 23] was “sweating” and the vomiting [1, 23] was “vomiting”. The Efficacy [2, 3] was 2 h: 30-40%, the Efficacy ([2]; Algoneurodystrophy, 8 h, without naltrexone) was 8 h: 80% and the Efficacy ([2]; Algoneurodystrophy, 14 h, without naltrexone) was 14 h: 70%. The Efficacy ([2]; Lumbosacral spondylitis without myelopathy, 2 h-24 h, without naltrexone) was 2 h-24 h: 80%, the Efficacy ([2]; Nonspecific coccyx disorders, without naltrexone) was “Efficacy <30%” and the Efficacy [2, 21] was “Efficacy: 100%”.

For `O=C1CC[C@@]2(O)[C@H]3Cc4ccc(O)c5c4[C@@]2(CCN3CC2CC2)[C@H]1O5` [naltrexone], the chest pain ([1]; Back pain, h 17.30, with naltrexone) was “chest pain”, the tachycardia ([1]; Back pain, h 18.30, with naltrexone) was “h 18.30: tachycardia” and the benefit ([1]; Diabetes mellitus type II, with naltrexone) was “benefit 100%”. The drowsiness ([1]; Lumbago, 1 h, with naltrexone) was 1 h: drowsiness (1), the pruritus ([1]; Lumbago, 2 h, with naltrexone) was 2 h: pruritus (2) and the drowsiness ([1]; Lumbago, 4 h, with naltrexone) was 4 h: drowsiness (2), pruritus (2). For the same compound, the pruritus ([1]; Lumbago, 4 h, with naltrexone) was 4 h: drowsiness (2), pruritus (2), the drowsiness ([1]; Lumbago, 6 h, with naltrexone) was 1 and the pruritus ([1]; Lumbago, 6 h, with naltrexone) was 2. For the same compound, the constipation [1, 24] was “constipation”, the drowsiness [1, 24] was “drowsiness” and the nausea [1, 24] was “nausea”. For the same compound, the sweating [1, 24] was “sweating”, the vertigo [1, 24] was “vertigo” and the vomiting [1, 24] was “vomiting”. The side-effects ([1]; Persistent spinal pain syndrome of uncertain aetiology, with naltrexone) was “none”, the nausea [1, 25] was 2 and the vomiting [1, 25] was “vomiting (2), urinary”. The pruritus [1, 26] was 4, the urinary retention [1, 26] was 2 and the pruritus [1, 27] was 1. For the same compound, the urinary retention [1, 27] was “urinary retention (1)”, the constipation [1, 28] was “constipation (3), drowsiness” and the drowsiness [1, 28] was 3. For the same compound, the urinary retention [1, 28] was “short-lived”, the “pruritus improved by” value ([1]; Secondary malignancies of bone and marrow, with naltrexone) was 90% and the numbness [1, 29] was 4 h: pruritus (1), numbness (1). The pruritus [1, 29] was 4 h: pruritus (1), numbness (1), the nausea [1, 30] was “nausea (1)” and the numbness [1, 30] was 6 h: pruritus (1), numbness (1),. For the same compound, the pruritus [1, 30] was 6 h: pruritus (1), numbness (1),, the nausea ([1]; Spinal pain, 8 h, with naltrexone) was 8 h: nausea (1) and the nausea ([1]; Stenosis of the lumbar spinal canal, with naltrexone) was “nausea (1)”. For the same compound, the Efficacy ([2]; Lumbago, 1 h, with naltrexone) was 1 h: 30-50%, the Efficacy ([2]; Lumbago, 4 h-8 h, with naltrexone) was 4 h-8 h: >50% and the Efficacy ([2]; Spinal pain, 1 h-8 h, at rest, with naltrexone) was 1 h-8 h: at rest 100%, under. For the same compound, the Efficacy ([2]; Spinal pain, 1 h-8 h, under strain, with naltrexone) was “strain 70%”.

— US20130011479A1, “DOUBLE-LAYER PHARMACEUTICAL FORMULATIONS CONTAINING OPIOID AGONISTS AND ANTAGONISTS” (L. MOLTENI & C. DEI FRATELLI ALITTI SOCIETA' DI ESERCIZIO …, priority 2010, published 2013)
